The results in this text go back to patent US20180185520A1, “COLLAGEN IMAGING COMPOSTIONS” (Collagen Medical, LLC, priority 2015, published 2018).

Bridge positions count the residues as written; N and C are the ends. Square brackets hold non-standard residues; d marks the D form. Primed or numbered codes have the meaning given here. Ends that are not written are not given here. Peptide text beside a SMILES is read from it. * marks the point of attachment. X1 = O=C(O)CN1CCN(CC(=O)O)CCN([C@H](CCC(=O)*)C(=O)O)CCN(CC(=O)O)CC1; GdDOTAGA″ = gadolinium DOTAGA chelate, amide-bonded; Bip = N[C@@H](Cc1ccc(-c2ccccc2)cc1)C(=O)O

What is called Kd is the constant that tells how readily two partners part at equilibrium.

One experiment has as its target T1, human type I collagen (Homo sapiens, UniProt P02452+P08123).
T1 construct: purchased Advanced Biomatrix 5007-A
Put plainly: Collagen binding assay, dried human collagen in microtiter plate. Particulars: 37° C., pH 7.4. The procedure:
10 ml of a solution of 3 mg/ml of human type I collagen (VitroCol solution, Advanced Biomatrix, cat#5007-A) is dialyzed against 10 mM Phosphate (NaH2PO4), pH 4.2 at 4° C. with three changes of the dialysis buffer. The protein concentration is determined by liquid chromatography determination of hydroxyproline (P. Hutson, J. Chromatogr. B, 791 (2003) 427-430).
Ice-cold 1×PBS pH 10.8 is added to the collagen solution for a final collagen concentration of 10 μM, pH 7.4. Collagen solutions are gelled and dried down in the wells of a 96 well microtiter plate (Corning Polystyrene Flat Bottom, cat#3641). […] The final well content of gelled collagen is measured by determination of hydroxyproline and is around 180 μg/ml.
(§1) a serial dilution of 0.2 μM-30 μM of the peptide chelate is prepared in PBS, pH 7.4 ([…], of solution for each concentration). […] The concentration of free, unbound compound in the sample supernatants and the concentration of compound in the reserved (total) sample are determined by ICP-MS (Agilent 7500, gadolinium concentration). The concentration of compound bound to collagen is determined as [bound]=[total]−[unbound].
(§2) The binding of compounds to human, rat and dog collagen (5 μM) was measured over the concentration range 0.2-5 μM of Comp ID Nos.: 1-4. […]

Experiment [1] addresses T2, Canine collagen (Native canine Collagen Type I and III protein) (Canis lupus familiaris, UniProt O46392+Q9XSJ7).
T2 construct: purchased YO protein AB 739
Put plainly: Collagen binding assay, dried canine collagen in microtiter plate. Particulars: 37° C., pH 7.4; read-out: Collagen Binding Dog (Kd). The procedure: Canine collagen (Native canine Collagen Type I and III protein, YO protein AB, cat#739) is dissolved in 0.5 M acetic acid at 3.3 mg/ml by vortexing and shaking overnight at 4° C. The solution is then dialyzed against 10 mM Phosphate (NaH2PO4), pH 4.2 at 4° C. with three changes of the dialysis buffer.
Ice-cold 1×PBS pH 10.8 is added to the collagen solution for a final collagen concentration of 10 μM, pH 7.4. Collagen solutions are gelled and dried down in the wells of a 96 well microtiter plate (Corning Polystyrene Flat Bottom, cat#3641). 70 μl of 10 μM collagen is aliquoted into each well in every other lane in the plate (48 wells) and the plate is incubated at 37° C. for 18 hours to form a gel and evaporate to dryness. […] The final well content of gelled collagen is measured by determination of hydroxyproline and is around 180 μg/ml.
as §1, §2

Experiment [2] deals with rat collagen (acid soluble, type I, rat tail, Millipore Inc, cat#08-115) (rat) (UniProt P02454). Put plainly: dried collagen film in microtiter plate; unbound compound by ICP-MS (Gd); fit to 1 binding site.

T1 sequence (P02452 162-1218 limits assumed): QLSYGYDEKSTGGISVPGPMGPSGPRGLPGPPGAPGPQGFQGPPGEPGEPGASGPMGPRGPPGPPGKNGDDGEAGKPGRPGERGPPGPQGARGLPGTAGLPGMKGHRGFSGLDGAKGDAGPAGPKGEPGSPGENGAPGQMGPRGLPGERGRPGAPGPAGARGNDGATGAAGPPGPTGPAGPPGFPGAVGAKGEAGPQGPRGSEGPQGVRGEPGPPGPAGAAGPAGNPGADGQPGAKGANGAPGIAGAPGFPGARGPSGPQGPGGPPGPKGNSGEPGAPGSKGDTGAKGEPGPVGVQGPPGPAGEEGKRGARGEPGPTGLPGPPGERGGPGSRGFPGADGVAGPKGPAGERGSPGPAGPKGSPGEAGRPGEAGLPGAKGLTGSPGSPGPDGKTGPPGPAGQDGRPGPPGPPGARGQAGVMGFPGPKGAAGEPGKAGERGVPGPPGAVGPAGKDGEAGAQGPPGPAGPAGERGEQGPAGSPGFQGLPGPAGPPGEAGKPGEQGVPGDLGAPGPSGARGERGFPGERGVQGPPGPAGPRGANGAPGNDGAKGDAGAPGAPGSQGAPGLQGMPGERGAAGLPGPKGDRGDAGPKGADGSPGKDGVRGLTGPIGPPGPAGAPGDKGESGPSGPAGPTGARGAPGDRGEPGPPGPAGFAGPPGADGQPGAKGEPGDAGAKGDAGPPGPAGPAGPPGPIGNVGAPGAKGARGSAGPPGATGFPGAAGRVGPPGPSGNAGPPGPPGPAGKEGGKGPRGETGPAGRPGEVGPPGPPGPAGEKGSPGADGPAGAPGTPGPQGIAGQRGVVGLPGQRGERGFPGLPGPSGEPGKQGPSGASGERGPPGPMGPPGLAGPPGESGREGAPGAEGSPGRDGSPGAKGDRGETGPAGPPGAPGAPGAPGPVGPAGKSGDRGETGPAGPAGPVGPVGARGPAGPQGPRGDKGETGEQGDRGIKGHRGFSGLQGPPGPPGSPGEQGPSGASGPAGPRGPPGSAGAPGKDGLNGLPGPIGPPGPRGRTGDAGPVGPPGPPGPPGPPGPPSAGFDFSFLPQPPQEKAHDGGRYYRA
T1 sequence (P08123 80-1119 limits assumed): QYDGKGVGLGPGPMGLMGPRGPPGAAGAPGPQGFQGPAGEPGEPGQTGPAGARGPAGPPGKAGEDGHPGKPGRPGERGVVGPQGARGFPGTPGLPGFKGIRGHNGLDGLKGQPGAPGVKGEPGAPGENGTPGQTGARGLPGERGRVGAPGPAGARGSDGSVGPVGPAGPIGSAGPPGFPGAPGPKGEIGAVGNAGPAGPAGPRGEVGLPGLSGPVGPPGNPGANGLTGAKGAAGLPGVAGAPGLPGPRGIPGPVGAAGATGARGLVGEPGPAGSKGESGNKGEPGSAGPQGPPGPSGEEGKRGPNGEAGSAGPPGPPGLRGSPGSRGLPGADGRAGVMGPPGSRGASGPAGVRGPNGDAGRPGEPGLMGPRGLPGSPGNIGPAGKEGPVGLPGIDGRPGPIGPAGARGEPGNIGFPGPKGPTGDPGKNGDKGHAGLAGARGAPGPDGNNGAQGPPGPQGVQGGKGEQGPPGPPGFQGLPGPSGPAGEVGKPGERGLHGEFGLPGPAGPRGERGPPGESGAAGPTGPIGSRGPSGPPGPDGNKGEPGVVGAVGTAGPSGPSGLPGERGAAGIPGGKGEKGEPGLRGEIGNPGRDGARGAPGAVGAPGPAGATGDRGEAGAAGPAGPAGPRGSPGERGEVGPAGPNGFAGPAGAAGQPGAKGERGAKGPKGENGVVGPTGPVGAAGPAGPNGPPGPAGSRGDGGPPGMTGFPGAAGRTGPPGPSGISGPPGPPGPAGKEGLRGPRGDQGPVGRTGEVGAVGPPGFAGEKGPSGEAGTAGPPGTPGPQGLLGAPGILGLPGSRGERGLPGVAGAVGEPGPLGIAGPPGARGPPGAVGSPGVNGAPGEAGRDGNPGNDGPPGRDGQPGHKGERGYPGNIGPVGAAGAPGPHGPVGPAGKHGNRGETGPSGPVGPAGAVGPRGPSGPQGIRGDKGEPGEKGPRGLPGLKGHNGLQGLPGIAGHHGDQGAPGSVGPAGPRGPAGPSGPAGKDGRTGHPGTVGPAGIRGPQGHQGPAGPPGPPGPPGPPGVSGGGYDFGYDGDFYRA
T2 sequence (Q9XSJ7 158-1214 limits assumed): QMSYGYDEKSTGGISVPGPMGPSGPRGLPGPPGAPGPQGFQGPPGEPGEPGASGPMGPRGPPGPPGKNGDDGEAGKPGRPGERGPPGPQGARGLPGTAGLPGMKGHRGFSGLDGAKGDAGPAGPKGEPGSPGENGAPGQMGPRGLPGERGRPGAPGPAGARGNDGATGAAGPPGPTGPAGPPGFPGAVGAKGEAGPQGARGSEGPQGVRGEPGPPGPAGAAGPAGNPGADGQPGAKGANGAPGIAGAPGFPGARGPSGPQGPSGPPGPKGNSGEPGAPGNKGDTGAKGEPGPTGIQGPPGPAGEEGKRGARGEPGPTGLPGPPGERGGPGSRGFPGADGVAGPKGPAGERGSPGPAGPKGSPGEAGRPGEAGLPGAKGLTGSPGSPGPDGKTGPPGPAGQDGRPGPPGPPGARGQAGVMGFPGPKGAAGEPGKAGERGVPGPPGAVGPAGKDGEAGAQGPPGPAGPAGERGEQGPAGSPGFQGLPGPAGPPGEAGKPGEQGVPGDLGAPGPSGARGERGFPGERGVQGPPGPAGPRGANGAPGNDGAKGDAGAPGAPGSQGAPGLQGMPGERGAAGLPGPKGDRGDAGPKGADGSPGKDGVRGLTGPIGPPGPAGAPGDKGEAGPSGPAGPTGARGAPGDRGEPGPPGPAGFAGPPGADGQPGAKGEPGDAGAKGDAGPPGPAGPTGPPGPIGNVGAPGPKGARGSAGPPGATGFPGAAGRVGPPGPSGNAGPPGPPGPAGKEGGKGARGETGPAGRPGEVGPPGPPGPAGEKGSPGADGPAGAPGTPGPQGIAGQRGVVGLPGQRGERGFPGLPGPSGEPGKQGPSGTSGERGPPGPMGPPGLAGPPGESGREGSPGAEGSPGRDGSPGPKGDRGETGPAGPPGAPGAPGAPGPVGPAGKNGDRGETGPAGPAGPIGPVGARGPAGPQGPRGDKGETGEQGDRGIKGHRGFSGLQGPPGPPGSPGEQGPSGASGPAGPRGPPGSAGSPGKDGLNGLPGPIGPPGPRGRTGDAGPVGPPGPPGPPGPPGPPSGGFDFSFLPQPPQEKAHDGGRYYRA
T2 sequence (O46392 80-1119 limits assumed): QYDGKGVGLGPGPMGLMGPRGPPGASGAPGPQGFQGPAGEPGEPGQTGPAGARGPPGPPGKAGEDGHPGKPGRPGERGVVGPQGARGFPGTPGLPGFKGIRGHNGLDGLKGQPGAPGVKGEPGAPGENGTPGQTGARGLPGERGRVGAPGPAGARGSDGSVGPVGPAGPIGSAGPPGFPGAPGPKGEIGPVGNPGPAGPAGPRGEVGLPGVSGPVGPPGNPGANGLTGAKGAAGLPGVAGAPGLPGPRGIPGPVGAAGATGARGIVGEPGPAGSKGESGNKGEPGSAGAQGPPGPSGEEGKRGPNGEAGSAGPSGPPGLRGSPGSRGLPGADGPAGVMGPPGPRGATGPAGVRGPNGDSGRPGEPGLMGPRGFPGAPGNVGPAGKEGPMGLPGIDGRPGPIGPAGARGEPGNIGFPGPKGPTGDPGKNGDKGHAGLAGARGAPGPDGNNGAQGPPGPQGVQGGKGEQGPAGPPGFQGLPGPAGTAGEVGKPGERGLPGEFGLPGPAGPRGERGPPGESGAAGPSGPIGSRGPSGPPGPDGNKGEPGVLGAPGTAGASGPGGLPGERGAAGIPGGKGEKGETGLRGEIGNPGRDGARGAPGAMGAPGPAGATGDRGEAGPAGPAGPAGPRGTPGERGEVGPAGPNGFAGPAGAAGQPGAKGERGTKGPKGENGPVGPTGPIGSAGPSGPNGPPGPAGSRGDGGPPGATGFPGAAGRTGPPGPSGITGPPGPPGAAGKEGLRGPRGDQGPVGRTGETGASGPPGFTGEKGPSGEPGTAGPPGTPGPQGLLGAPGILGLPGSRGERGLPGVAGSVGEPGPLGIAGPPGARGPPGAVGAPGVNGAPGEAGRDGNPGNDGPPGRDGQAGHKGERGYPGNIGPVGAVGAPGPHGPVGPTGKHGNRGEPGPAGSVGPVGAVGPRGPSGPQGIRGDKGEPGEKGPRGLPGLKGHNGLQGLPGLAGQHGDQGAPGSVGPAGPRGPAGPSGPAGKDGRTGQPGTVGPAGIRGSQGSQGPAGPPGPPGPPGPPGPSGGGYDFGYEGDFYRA

On to `CC(C)C[C@H](NC(=O)[C@@H]1CSSC[C@H](NC(=O)[C@H](Cc2c[nH]cn2)NC(=O)[C@H](Cc2c[nH]c3ccccc23)NC(=O)[C@H](Cc2ccc(O)cc2)NC(=O)[C@H](CCCCNC(=O)CC[C@H](C(=O)O)N2CCN(CC(=O)O)CCN(CC(=O)O)CCN(CC(=O)O)CC2)NC(=O)CC[C@H](C(=O)O)N2CCN(CC(=O)O)CCN(CC(=O)O)CCN(CC(=O)O)CC2)C(=O)N[C@@H]([C@@H](C)O)C(=O)N[C@@H]([C@@H](C)O)C(=O)N[C@@H](CCCCNC(=O)CC[C@H](C(=O)O)N2CCN(CC(=O)O)CCN(CC(=O)O)CCN(CC(=O)O)CC2)C(=O)N[C@@H](Cc2ccccc2)C(=O)N2CCC[C@H]2C(=O)N[C@@H](Cc2c[nH]cn2)C(=O)N[C@@H](Cc2c[nH]cn2)C(=O)N[C@@H](Cc2ccc(O)cc2)C(=O)N1)C(=O)N[C@@H](Cc1ccc(O)cc1)C(=O)N[C@@H](Cc1ccc(-c2ccccc2)cc1)C(N)=O` [Compound ID No. 3] (X1-K(X1)YWHCTTK(X1)FPHHYCLY[Bip]-NH2; disulfide 5-14), for which binding at human type I collagen was put at a Kd of 29.8 µM.
Turning to `CC(C)[C@H](NC(=O)[C@@H]1CSSC[C@H](NC(=O)[C@H](Cc2c[nH]cn2)NC(=O)[C@H](Cc2c[nH]c3ccccc23)NC(=O)[C@H](CCCCNC(=O)CC[C@H](C(=O)O)N2CCN(CC(=O)O)CCN(CC(=O)O)CCN(CC(=O)O)CC2)NC(=O)CC[C@H](C(=O)O)N2CCN(CC(=O)O)CCN(CC(=O)O)CCN(CC(=O)O)CC2)C(=O)N[C@@H](Cc2ccc(O)cc2)C(=O)N[C@@H]([C@@H](C)O)C(=O)N[C@@H](CCCCNC(=O)CC[C@H](C(=O)O)N2CCN(CC(=O)O)CCN(CC(=O)O)CCN(CC(=O)O)CC2)C(=O)N[C@@H](Cc2ccccc2)C(=O)N2CCC[C@H]2C(=O)N[C@@H](Cc2c[nH]cn2)C(=O)N[C@@H](Cc2c[nH]cn2)C(=O)N[C@@H](Cc2ccc(O)cc2)C(=O)N1)C(=O)N[C@@H](Cc1ccc(O)cc1)C(=O)N[C@@H](Cc1ccc(-c2ccccc2)cc1)C(N)=O` [Compound ID No. 4] (X1-K(X1)WHCYTK(X1)FPHHYCVY[Bip]-NH2; disulfide 4-13), the Kd in experiment [1] came out at 2 µM.

B1: Compound ID No. 4 (peptide)
peptide: KWHCYTKFPHHYCVY[Bip]-NH2
modifications: disulfide 4-13; also: GdDOTAGA on N-terminal nitrogen or Lys epsilon amines, sites not fixed
With B1, the Kd in experiment [2] was 4.6 µM.
{GdDOTAGA″}-K(GdDOTAGA″)WHCTTK(GdDOTAGA″)FPHHYCLY[Bip]-NH2 (disulfide 4-13) [Compound ID No. 2] had a Kd in experiment [2] of 20.6 µM.
